Data published in patent publication US10858367B2, “Compounds” (GLAXOSMITHKLINE INTELLECTUAL PROPERTY DEVELOPMENT LIMITED, priority 2017, dated 2020).
“And” between values parts separate entries of the source, which are not always exact repeats. Equal entries are not always repeated.

Each compound was assayed against T1, LRRK2 Ser935 phosphorylation in SH-SY5Y cells over-expressing recombinant full length LRRK2 (Homo sapiens, UniProt Q5S007) (assay: Recombinant cellular LRRK2 AlphaScreen assay). Details: human neuroblastoma SH-SY5Y cells, BacMam full length LRRK2, 60 minutes with compound, read-out: pIC50 in the recombinant cellular LRRK2 AlphaScreen assay (converted).
T1 construct: A BacMam virus expressing full length recombinant LRRK2 was purchased from Invitrogen; host or cells: SH-SY5Y human neuroblastoma cells transduced with BacMam LRRK2 virus
Type: cell-based
Excerpt: b. Recombinant Cellular LRRK2 AlphaScreen Assay
To determine the activity of compounds against LRRK2 kinase activity in cells, the observed LRRK2 kinase-dependent modulation of LRRK2 Ser 935 phosphorylation (Dzamko et al., 2010, Biochem. J. 430: 405-413) was utilized to develop a quantitative 384 well plate-based immunoassay of LRRK2 Ser935 phosphorylation in the human neuroblastoma cell line SH-SY5Y, engineered to over-express recombinant full length LRRK2 protein.
A BacMam virus expressing full length recombinant LRRK2 was purchased from Invitrogen and amplified by inoculation of SF-9 cells at MOI 0.3 for 4-5 days in Sf-900 III SFM medium supplemented with 3% fetal bovine serum. Infected cell cultures were then centrifuged at 2000 g for 20 minutes, viral supernatant titer determined by anti-gp64 plaque assay and stored at 4° C.
Affinity-purified anti-phospho LRRK2 Ser935 sheep polyclonal antibody (Dzamko et al., 2010, Biochem. J. 430: 405-413) was biotinylated by standard methods (PerkinElmer). Anti-LRRK2 rabbit polyclonal antibody was purchased from Novus Biologicals. AlphaScreen Protein A IgG Kit (including acceptor and donor beads) was purchased from Perkin Elmer.
SH-SY5Y cells were grown in DMEM/F12 medium with 10% dialysed fetal bovine serum and harvested by treatment with 0.5% trypsin-EDTA for 5 minutes at 37° C. followed by centrifugation at 1000 rpm for 4 minutes. The cell pellet was resuspended in Opti-MEM reduced serum media (Invitrogen) at 200,000 cells/ml and mixed with the BacMam LRRK2 virus at MOI=50. 50 μl cell solutions were then dispensed to each well of a 384-well plate and incubated at 37° C., 5% CO2 for 24 hours.
Serial dilutions of test compounds were prepared in Opti-MEM reduced serum media (Invitrogen) and 5.6 ul transferred from compound plate to cell assay plate to achieve a top final assay concentration of 10 uM. DMSO was used in certain wells as controls. Cells were incubated at 37° C., 5% CO2 for 60 minutes. The medium was then removed and cells lysed by addition of 20 ul cell lysis buffer (Cell Signaling Technology) and incubation at 4° C. for 20 minutes. 10 ul of antibody/acceptor bead mix [(1/1000 biotinylated-pS935 LRRK2 antibody, 1/1000 total-LRRK2 antibody, 1/100 Acceptor beads in AlphaScreen detection buffer (25 mM Hepes (pH 7.4), 0.5% Triton X-100, 1 mg/ml Dextran 500 and 0.1% BSA)] was then added to each well and plates incubated for 2 hours at ambient temperature in the dark. 10 μl of donor beads solution (1/33.3 donor beads in AlphaScreen detection buffer) was then added to each well. Following incubation for a further 2 hours at ambient temperature in the dark, plates were read on an EnVision™ plate reader at emission 520-620 nm with excitation 680 nm. Dose response curve data was based on sigmoidal dose-response model.

T1 sequence (Q5S007 whole entry): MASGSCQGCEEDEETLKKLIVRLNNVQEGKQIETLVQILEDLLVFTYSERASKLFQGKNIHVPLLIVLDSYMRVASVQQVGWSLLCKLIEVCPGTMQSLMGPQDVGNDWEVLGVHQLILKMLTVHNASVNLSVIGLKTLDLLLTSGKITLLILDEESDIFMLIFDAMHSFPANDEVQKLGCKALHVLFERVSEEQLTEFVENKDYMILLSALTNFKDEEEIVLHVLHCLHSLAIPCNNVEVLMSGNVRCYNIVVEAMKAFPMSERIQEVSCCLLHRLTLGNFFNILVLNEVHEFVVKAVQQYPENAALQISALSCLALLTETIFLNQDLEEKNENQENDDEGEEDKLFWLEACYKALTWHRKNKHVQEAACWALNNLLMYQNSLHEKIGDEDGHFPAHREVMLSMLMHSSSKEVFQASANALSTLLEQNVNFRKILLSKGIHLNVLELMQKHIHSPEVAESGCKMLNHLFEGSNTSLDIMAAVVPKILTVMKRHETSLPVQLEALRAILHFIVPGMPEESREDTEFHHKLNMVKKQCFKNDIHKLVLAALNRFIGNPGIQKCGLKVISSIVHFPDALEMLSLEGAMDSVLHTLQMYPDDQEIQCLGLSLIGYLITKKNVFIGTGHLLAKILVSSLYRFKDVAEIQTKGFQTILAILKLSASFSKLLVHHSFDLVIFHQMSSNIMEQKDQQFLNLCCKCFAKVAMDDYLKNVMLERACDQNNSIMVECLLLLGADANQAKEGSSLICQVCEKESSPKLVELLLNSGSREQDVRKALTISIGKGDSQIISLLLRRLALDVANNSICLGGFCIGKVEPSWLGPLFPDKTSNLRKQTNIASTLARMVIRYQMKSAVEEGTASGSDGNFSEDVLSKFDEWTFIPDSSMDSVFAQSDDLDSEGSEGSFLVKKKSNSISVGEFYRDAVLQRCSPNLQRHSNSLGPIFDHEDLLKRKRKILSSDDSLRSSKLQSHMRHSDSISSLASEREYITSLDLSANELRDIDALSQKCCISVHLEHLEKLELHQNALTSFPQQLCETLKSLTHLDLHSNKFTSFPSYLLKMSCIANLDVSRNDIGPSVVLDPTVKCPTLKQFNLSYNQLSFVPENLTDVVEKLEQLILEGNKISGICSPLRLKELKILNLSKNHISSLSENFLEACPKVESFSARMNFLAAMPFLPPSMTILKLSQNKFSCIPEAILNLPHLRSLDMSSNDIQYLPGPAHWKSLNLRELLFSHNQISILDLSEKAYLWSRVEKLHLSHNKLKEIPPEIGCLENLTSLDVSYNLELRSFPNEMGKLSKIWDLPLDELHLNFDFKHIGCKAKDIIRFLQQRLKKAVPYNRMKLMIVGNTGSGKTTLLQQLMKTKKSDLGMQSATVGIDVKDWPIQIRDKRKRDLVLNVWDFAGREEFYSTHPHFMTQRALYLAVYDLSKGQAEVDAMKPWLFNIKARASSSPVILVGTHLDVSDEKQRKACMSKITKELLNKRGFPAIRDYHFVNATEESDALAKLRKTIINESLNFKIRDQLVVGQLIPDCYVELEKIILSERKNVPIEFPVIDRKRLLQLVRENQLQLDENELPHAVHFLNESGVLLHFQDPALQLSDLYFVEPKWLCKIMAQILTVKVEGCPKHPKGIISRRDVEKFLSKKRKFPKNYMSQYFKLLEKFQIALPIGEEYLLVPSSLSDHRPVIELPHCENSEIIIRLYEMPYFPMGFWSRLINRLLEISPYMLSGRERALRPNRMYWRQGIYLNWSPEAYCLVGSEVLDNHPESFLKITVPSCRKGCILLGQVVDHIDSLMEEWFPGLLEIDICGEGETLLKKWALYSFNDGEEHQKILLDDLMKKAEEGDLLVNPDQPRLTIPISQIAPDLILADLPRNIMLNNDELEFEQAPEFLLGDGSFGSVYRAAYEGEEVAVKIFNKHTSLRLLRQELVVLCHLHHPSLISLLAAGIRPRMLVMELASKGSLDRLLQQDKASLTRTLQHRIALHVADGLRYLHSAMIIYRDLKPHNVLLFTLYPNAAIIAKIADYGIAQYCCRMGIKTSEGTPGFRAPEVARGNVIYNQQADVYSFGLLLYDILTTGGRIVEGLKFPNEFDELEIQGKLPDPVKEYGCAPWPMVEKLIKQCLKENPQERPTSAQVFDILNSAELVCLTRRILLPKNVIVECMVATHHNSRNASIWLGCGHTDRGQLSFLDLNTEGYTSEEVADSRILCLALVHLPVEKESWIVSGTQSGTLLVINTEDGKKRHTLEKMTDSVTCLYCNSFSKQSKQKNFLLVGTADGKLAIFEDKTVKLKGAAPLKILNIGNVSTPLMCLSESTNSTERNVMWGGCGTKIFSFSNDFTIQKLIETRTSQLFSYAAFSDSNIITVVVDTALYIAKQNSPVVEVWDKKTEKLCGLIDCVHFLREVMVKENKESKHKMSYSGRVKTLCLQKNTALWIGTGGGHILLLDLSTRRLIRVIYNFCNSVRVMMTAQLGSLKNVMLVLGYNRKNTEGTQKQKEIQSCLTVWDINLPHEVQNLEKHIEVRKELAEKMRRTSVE

Structure (SMILES) | IC50
Cc1nc(N2C[C@@H]3C[C@H]2CO3)cc(-n2ncc3cc(C)c(C4CCN(CCC(=O)O)CC4F)cc32)n1 (single isomer, unassigned) [Example E157] | ≤ 1000 nM
COc1nc(N2C[C@@H]3C[C@H]2CO3)cc(-n2ncc3cc(C)c(C4CCN(CCC(=O)O)CC4F)cc32)n1 (single isomer, unassigned) [Example E161] | ≤ 1000 nM
Cc1nc(N2C[C@@]3(CO)C[C@@H]2CO3)cc(-n2ncc3cc(C)c(C4CCOCC4O)cc32)n1 (single isomer, unassigned) [Example E168, 4-(1-(6-(1-(hydroxymethyl)-2-oxa-5-azabicyclo[2.2.1]heptan-5-yl)-2-methylpyrimidin-4-yl)-5-methyl-1H-indazol-6-yl)tetrahydro-2H-pyran-3-ol] | ≤ 1000 nM
COc1nc(N2C[C@H]3C[C@@H]2CO3)cc(-n2ncc3cc(C)c(C4CCN(C5COC5)CC4)cc32)n1 [Example E1, (1R,4R)-5-(2-methoxy-6-(5-methyl-6-(1-(oxetan-3-yl)piperidin-4-yl)-1H-indazol-1-yl)pyrimidin-4-yl)-2-oxa-5-azabicyclo[2.2.1]heptane] | ≤ 1000 nM and 20 nM
COc1nc(N2C[C@H]3C[C@@H]2CO3)cc(-n2ncc3ccc(OC4(C)CC4)cc32)n1 [Example E3, (1R,4R)-5-(2-methoxy-6-(6-(1-methylcyclopropoxy)-1H-indazol-1-yl)pyrimidin-4-yl)-2-oxa-5-azabicyclo[2.2.1]heptane] | ≤ 1000 nM
COc1nc(N2C[C@@H]3C[C@H]2CO3)cc(-n2ncc3ccc(OC4(C)CC4)cc32)n1 [Example E4, (1S,4S)-5-(2-methoxy-6-(6-(1-methylcyclopropoxy)-1H-indazol-1-yl)pyrimidin-4-yl)-2-oxa-5-azabicyclo[2.2.1]heptane] | ≤ 1000 nM
COc1nc(N2C[C@H]3C[C@@H]2CO3)cc(-n2ncc3cc(Cl)c(C4CCN(C5COC5)CC4)cc32)n1 [Example E5, (1R,4R)-5-(6-(5-chloro-6-(1-(oxetan-3-yl)piperidin-4-yl)-1H-indazol-1-yl)-2-methoxypyrimidin-4-yl)-2-oxa-5-azabicyclo[2.2.1]heptane] | ≤ 10 nM
COc1nc(N2C[C@@H]3C[C@H]2CO3)cc(-n2ncc3cc(Cl)c(C4CCN(C5COC5)CC4)cc32)n1 [Example E6, (1S,4S)-5-(6-(5-chloro-6-(1-(oxetan-3-yl)piperidin-4-yl)-1H-indazol-1-yl)-2-methoxypyrimidin-4-yl)-2-oxa-5-azabicyclo[2.2.1]heptane] | ≤ 1000 nM
COc1nc(N2C[C@H]3C[C@@H]2CO3)cc(-n2ncc3cc(C)c(C4CCN(CCO)CC4)cc32)n1 [Example E27, 2-(4-(1-(6-((1R,4R)-2-oxa-5-azabicyclo[2.2.1]heptan-5-yl)-2-methoxypyrimidin-4-yl)-5-methyl-1H-indazol-6-yl)piperidin-1-yl)ethanol] | ≤ 1000 nM
COc1nc(N2C[C@@H]3C[C@H]2CO3)cc(-n2ncc3cc(C)c(C4CCN(CCO)CC4)cc32)n1 [Example E28, 2-(4-(1-(6-((1S,4S)-2-oxa-5-azabicyclo[2.2.1]heptan-5-yl)-2-methoxypyrimidin-4-yl)-5-methyl-1H-indazol-6-yl)piperidin-1-yl)ethanol] | ≤ 1000 nM
Cc1nc(N2C[C@@H]3C[C@H]2CO3)cc(-n2ncc3cc(Cl)c(N4CCC(C)(O)CC4)cc32)n1 [Example E33, 1-(1-(6-((1S,4S)-2-oxa-5-azabicyclo[2.2.1]heptan-5-yl)-2-methylpyrimidin-4-yl)-5-chloro-1H-indazol-6-yl)-4-methylpiperidin-4-ol] | ≤ 1000 nM
Cc1nc(N2C[C@H]3C[C@@H]2CO3)cc(-n2ncc3cc(Cl)c(N4CCC(C)(O)CC4)cc32)n1 [Example E34, 1-(1-(6-((1R,4R)-2-oxa-5-azabicyclo[2.2.1]heptan-5-yl)-2-methylpyrimidin-4-yl)-5-chloro-1H-indazol-6-yl)-4-methylpiperidin-4-ol] | ≤ 1000 nM
COCCN1CCC(c2cc3c(cnn3-c3cc(N4C[C@H]5C[C@@H]4CO5)nc(OC)n3)cc2C)CC1 [Example E35, (1R,4R)-5-(2-methoxy-6-(6-(1-(2-methoxyethyl)piperidin-4-yl)-5-methyl-1H-indazol-1-yl)pyrimidin-4-yl)-2-oxa-5-azabicyclo[2.2.1]heptane] | ≤ 1000 nM
COCCN1CCC(c2cc3c(cnn3-c3cc(N4C[C@@H]5C[C@H]4CO5)nc(OC)n3)cc2C)CC1 [Example E36, (1S,4S)-5-(2-methoxy-6-(6-(1-(2-methoxyethyl)piperidin-4-yl)-5-methyl-1H-indazol-1-yl)pyrimidin-4-yl)-2-oxa-5-azabicyclo[2.2.1]heptane] | ≤ 1000 nM

The next lines start with the values.

IC50 | Structure (SMILES)
≤ 1000 nM | Cc1nc(N2C[C@H]3C[C@@H]2CO3)cc(-n2ncc3cc(C)c(C4CCN(C5COCC5O)CC4)cc32)n1 (single isomer, unassigned) [Example E172]
≤ 1000 nM | COc1nc(N2C[C@@H]3C[C@H]2CO3)cc(-n2ncc3cc(C)c(C4CCN(C5COC5)CC4)cc32)n1 [Example E2, (1S,4S)-5-(2-methoxy-6-(5-methyl-6-(1-(oxetan-3-yl)piperidin-4-yl)-1H-indazol-1-yl)pyrimidin-4-yl)-2-oxa-5-azabicyclo[2.2.1]heptane]
≤ 1000 nM | Cc1nc(N2C[C@@H]3C[C@H]2CO3)cc(-n2ncc3cc(C)c([C@H]4CC[C@@](C)(O)CC4)cc32)n1 [Example E7, Cis-4-(1-(6-((1S,4S)-2-oxa-5-azabicyclo[2.2.1]heptan-5-yl)-2-methylpyrimidin-4-yl)-5-methyl-1H-indazol-6-yl)-1-methylcyclohexanol]
≤ 1000 nM | Cc1nc(N2C[C@@H]3C[C@H]2CO3)cc(-n2ncc3cc(C)c([C@H]4CC[C@](C)(O)CC4)cc32)n1 [Example E8, Trans-4-(1-(6-((1S,4S)-2-oxa-5-azabicyclo[2.2.1]heptan-5-yl)-2-methylpyrimidin-4-yl)-5-methyl-1H-indazol-6-yl)-1-methylcyclohexanol]
≤ 1000 nM | Cc1nc(N2C[C@H]3C[C@@H]2CO3)cc(-n2ncc3cc(Cl)c(C4CCN(C5COC5)CC4)cc32)n1 [Example E25, (1R,4R)-5-(6-(5-chloro-6-(1-(oxetan-3-yl)piperidin-4-yl)-1H-indazol-1-yl)-2-methylpyrimidin-4-yl)-2-oxa-5-azabicyclo[2.2.1]heptane]
≤ 1000 nM | Cc1nc(N2C[C@@H]3C[C@H]2CO3)cc(-n2ncc3cc(Cl)c(C4CCN(C5COC5)CC4)cc32)n1 [Example E26, (1S,4S)-5-(6-(5-chloro-6-(1-(oxetan-3-yl)piperidin-4-yl)-1H-indazol-1-yl)-2-methylpyrimidin-4-yl)-2-oxa-5-azabicyclo[2.2.1]heptane]
≤ 1000 nM | Cc1nc(N2C[C@H]3C[C@@H]2CN3C2COC2)cc(-n2ncc3cc(C)c([C@H]4CC[C@@](C)(O)CC4)cc32)n1 [Example E29, Cis-1-methyl-4-(5-methyl-1-(2-methyl-6-((1R,4R)-5-(oxetan-3-yl)-2,5-diazabicyclo[2.2.1]heptan-2-yl)pyrimidin-4-yl)-1H-indazol-6-yl)cyclohexanol]
≤ 1000 nM | Cc1nc(N2CC3CC2CN3C2COC2)cc(-n2ncc3cc(C)c([C@H]4CC[C@@](C)(O)CC4)cc32)n1 (stereo partly drawn) [Example E30, Cis-1-methyl-4-(5-methyl-1-(2-methyl-6-((1S,4S)-5-(oxetan-3-yl)-2,5-diazabicyclo[2.2.1]heptan-2-yl)pyrimidin-4-yl)-1H-indazol-6-yl)cyclohexanol]
1070 nM | Cc1nc(N2C[C@H]3C[C@@H]2CN3C2COC2)cc(-n2ncc3cc(C)c([C@H]4CC[C@](C)(O)CC4)cc32)n1 [Example E31, Trans-1-methyl-4-(5-methyl-1-(2-methyl-6-((1R,4R)-5-(oxetan-3-yl)-2,5-diazabicyclo[2.2.1]heptan-2-yl)pyrimidin-4-yl)-1H-indazol-6-yl)cyclohexanol]
1860 nM | Cc1nc(N2C[C@@H]3C[C@H]2CN3C2COC2)cc(-n2ncc3cc(C)c([C@H]4CC[C@](C)(O)CC4)cc32)n1 [Example E32, Trans-1-methyl-4-(5-methyl-1-(2-methyl-6-((1S,4S)-5-(oxetan-3-yl)-2,5-diazabicyclo[2.2.1]heptan-2-yl)pyrimidin-4-yl)-1H-indazol-6-yl)cyclohexanol]
